This note sets out measurements from the supplement of paper PMC10307832.

Molecules are shown by their SMILES.

The test system of one test is HCC-78. The experiment in a line: relative viability (nuclei count vs DMSO), 5 days (fraction); higher = more cells survive. The following applies: first compound 8 µM. In short, it runs like this:
(§1)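 Dosing by pin tool came one day after lung cancer cell lines were seeded in 1536-well plates, using either one drug or a fixed anchor-drug dose plus five library-drug doses (not always all listed) in √10 steps. After 5 days, nuclei were counted on 4× images. Relative viability is treated-well nuclei count divided by vehicle-well nuclei count, and values are medians of duplicate plates.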
Regarding `Nc1cccc2c1CN(C1CCC(=O)NC1=O)C2=O` (configuration not stated) [Lenalidomide] + Nc1nc2[nH]cc(CCc3ccc(C(=O)N[C@@H](CCC(=O)O)C(=O)O)cc3)c2c(=O)[nH]1 [Pemetrexed] (partner 0.2 µM), the relative viability was 0.937.

Compound `Nc1cccc2c1CN(C1CCC(=O)NC1=O)C2=O` (configuration not stated) [Lenalidomide] + CC(=O)c1c(C)c2cnc(Nc3ccc(N4CCNCC4)cn3)nc2n(C2CCCC2)c1=O [Palbociclib] (partner 0.5 µM) registered a relative viability of 0.47.

In the case of `Nc1cccc2c1CN(C1CCC(=O)NC1=O)C2=O` (configuration not stated) [Lenalidomide] + O=C(CCCCCCC(=O)Nc1ccccc1)NO [Vorinostat] (partner 1 µM), the relative viability turned out to be 0.486.

In turn, `Nc1cccc2c1CN(C1CCC(=O)NC1=O)C2=O` (configuration not stated) [Lenalidomide] + COc1cccc2cc(-c3nc([C@H]4CC[C@H](C(=O)O)CC4)n4ncnc(N)c34)[nH]c12 [OSI-027] (partner 0.5 µM) had a relative viability of 0.382.

In a further test the test system is HOP-62. The description is as above. Conditions: first compound 0.253 µM. The method in brief:
as §1
`Nc1cccc2c1CN(C1CCC(=O)NC1=O)C2=O` (configuration not stated) [Lenalidomide] + Nc1ncn([C@H]2C[C@H](O)[C@@H](CO)O2)c(=O)n1 [Decitabine] (partner 2 µM) registered a relative viability of 0.264.

In turn, `Nc1cccc2c1CN(C1CCC(=O)NC1=O)C2=O` (configuration not stated) [Lenalidomide] + N=C(N)NC(=N)NCCc1ccccc1 [Phenformin] (partner 250 µM) returned a relative viability of 0.611.

Consider `Nc1cccc2c1CN(C1CCC(=O)NC1=O)C2=O` (configuration not stated) [Lenalidomide] + Nc1nc2[nH]cc(CCc3ccc(C(=O)N[C@@H](CCC(=O)O)C(=O)O)cc3)c2c(=O)[nH]1 [Pemetrexed] (partner 0.2 µM), for which the relative viability stood at 0.356.

Take `Nc1cccc2c1CN(C1CCC(=O)NC1=O)C2=O` (configuration not stated) [Lenalidomide] + CC(=O)c1c(C)c2cnc(Nc3ccc(N4CCNCC4)cn3)nc2n(C2CCCC2)c1=O [Palbociclib] (partner 0.5 µM): the relative viability was determined as 0.45.

Take `Nc1cccc2c1CN(C1CCC(=O)NC1=O)C2=O` (configuration not stated) [Lenalidomide] + O=C(CCCCCCC(=O)Nc1ccccc1)NO [Vorinostat] (partner 1 µM): the relative viability turned out to be 0.56.

`Nc1cccc2c1CN(C1CCC(=O)NC1=O)C2=O` (configuration not stated) [Lenalidomide] + COc1cccc2cc(-c3nc([C@H]4CC[C@H](C(=O)O)CC4)n4ncnc(N)c34)[nH]c12 [OSI-027] (partner 0.5 µM): the relative viability was 0.685.

Still in this test, the particulars now being: first compound 0.8 µM.
Compound `Nc1cccc2c1CN(C1CCC(=O)NC1=O)C2=O` (configuration not stated) [Lenalidomide] + Nc1ncn([C@H]2C[C@H](O)[C@@H](CO)O2)c(=O)n1 [Decitabine] (partner 2 µM) returned a relative viability of 0.239.

For `Nc1cccc2c1CN(C1CCC(=O)NC1=O)C2=O` (configuration not stated) [Lenalidomide] + N=C(N)NC(=N)NCCc1ccccc1 [Phenformin] (partner 250 µM), the relative viability came to 0.733.

In turn, `Nc1cccc2c1CN(C1CCC(=O)NC1=O)C2=O` (configuration not stated) [Lenalidomide] + Nc1nc2[nH]cc(CCc3ccc(C(=O)N[C@@H](CCC(=O)O)C(=O)O)cc3)c2c(=O)[nH]1 [Pemetrexed] (partner 0.2 µM) registered a relative viability of 0.376.

The compound `Nc1cccc2c1CN(C1CCC(=O)NC1=O)C2=O` (configuration not stated) [Lenalidomide] + CC(=O)c1c(C)c2cnc(Nc3ccc(N4CCNCC4)cn3)nc2n(C2CCCC2)c1=O [Palbociclib] (partner 0.5 µM) gave a relative viability of 0.41.

In turn, `Nc1cccc2c1CN(C1CCC(=O)NC1=O)C2=O` (configuration not stated) [Lenalidomide] + O=C(CCCCCCC(=O)Nc1ccccc1)NO [Vorinostat] (partner 1 µM) gave a relative viability of 0.565.

In turn, `Nc1cccc2c1CN(C1CCC(=O)NC1=O)C2=O` (configuration not stated) [Lenalidomide] + COc1cccc2cc(-c3nc([C@H]4CC[C@H](C(=O)O)CC4)n4ncnc(N)c34)[nH]c12 [OSI-027] (partner 0.5 µM) gave a relative viability of 0.802.

Still in this test, the particulars now being: first compound 2.53 µM.
As for `Nc1cccc2c1CN(C1CCC(=O)NC1=O)C2=O` (configuration not stated) [Lenalidomide] + Nc1ncn([C@H]2C[C@H](O)[C@@H](CO)O2)c(=O)n1 [Decitabine] (partner 2 µM), the relative viability was 0.224.

On to `Nc1cccc2c1CN(C1CCC(=O)NC1=O)C2=O` (configuration not stated) [Lenalidomide] + N=C(N)NC(=N)NCCc1ccccc1 [Phenformin] (partner 250 µM), for which the relative viability is 0.736.

Compound `Nc1cccc2c1CN(C1CCC(=O)NC1=O)C2=O` (configuration not stated) [Lenalidomide] + Nc1nc2[nH]cc(CCc3ccc(C(=O)N[C@@H](CCC(=O)O)C(=O)O)cc3)c2c(=O)[nH]1 [Pemetrexed] (partner 0.2 µM) yielded a relative viability of 0.287.

Regarding `Nc1cccc2c1CN(C1CCC(=O)NC1=O)C2=O` (configuration not stated) [Lenalidomide] + CC(=O)c1c(C)c2cnc(Nc3ccc(N4CCNCC4)cn3)nc2n(C2CCCC2)c1=O [Palbociclib] (partner 0.5 µM), the relative viability stood at 0.455.

`Nc1cccc2c1CN(C1CCC(=O)NC1=O)C2=O` (configuration not stated) [Lenalidomide] + O=C(CCCCCCC(=O)Nc1ccccc1)NO [Vorinostat] (partner 1 µM) registered a relative viability of 0.662.

Consider `Nc1cccc2c1CN(C1CCC(=O)NC1=O)C2=O` (configuration not stated) [Lenalidomide] + COc1cccc2cc(-c3nc([C@H]4CC[C@H](C(=O)O)CC4)n4ncnc(N)c34)[nH]c12 [OSI-027] (partner 0.5 µM), for which the relative viability amounted to 0.998.

The test is the same for the next values; noted with them: first compound 8 µM.
As for `Nc1cccc2c1CN(C1CCC(=O)NC1=O)C2=O` (configuration not stated) [Lenalidomide] + Nc1ncn([C@H]2C[C@H](O)[C@@H](CO)O2)c(=O)n1 [Decitabine] (partner 2 µM), the relative viability is 0.212.

With `Nc1cccc2c1CN(C1CCC(=O)NC1=O)C2=O` (configuration not stated) [Lenalidomide] + N=C(N)NC(=N)NCCc1ccccc1 [Phenformin] (partner 250 µM), the relative viability was found to be 0.705.

With `Nc1cccc2c1CN(C1CCC(=O)NC1=O)C2=O` (configuration not stated) [Lenalidomide] + Nc1nc2[nH]cc(CCc3ccc(C(=O)N[C@@H](CCC(=O)O)C(=O)O)cc3)c2c(=O)[nH]1 [Pemetrexed] (partner 0.2 µM), the relative viability was 0.381.

Consider `Nc1cccc2c1CN(C1CCC(=O)NC1=O)C2=O` (configuration not stated) [Lenalidomide] + CC(=O)c1c(C)c2cnc(Nc3ccc(N4CCNCC4)cn3)nc2n(C2CCCC2)c1=O [Palbociclib] (partner 0.5 µM), for which the relative viability came to 0.378.

Consider `Nc1cccc2c1CN(C1CCC(=O)NC1=O)C2=O` (configuration not stated) [Lenalidomide] + O=C(CCCCCCC(=O)Nc1ccccc1)NO [Vorinostat] (partner 1 µM), for which the relative viability amounted to 0.519.

In turn, `Nc1cccc2c1CN(C1CCC(=O)NC1=O)C2=O` (configuration not stated) [Lenalidomide] + COc1cccc2cc(-c3nc([C@H]4CC[C@H](C(=O)O)CC4)n4ncnc(N)c34)[nH]c12 [OSI-027] (partner 0.5 µM) gave a relative viability of 0.789.

The subject of the next test is IA-LM. Described as above. The following applies: first compound 0.253 µM. In short, it runs like this:
as §1
As to `Nc1cccc2c1CN(C1CCC(=O)NC1=O)C2=O` (configuration not stated) [Lenalidomide] + O=C(CCCCCCC(=O)Nc1ccccc1)NO [Vorinostat] (partner 1 µM), the relative viability is 0.852.

The same test, now with this note: first compound 0.8 µM.
The compound `Nc1cccc2c1CN(C1CCC(=O)NC1=O)C2=O` (configuration not stated) [Lenalidomide] + O=C(CCCCCCC(=O)Nc1ccccc1)NO [Vorinostat] (partner 1 µM) had a relative viability of 0.969.

Staying with this test, now noted: first compound 2.53 µM.
`Nc1cccc2c1CN(C1CCC(=O)NC1=O)C2=O` (configuration not stated) [Lenalidomide] + O=C(CCCCCCC(=O)Nc1ccccc1)NO [Vorinostat] (partner 1 µM) yielded a relative viability of 1.22.

The same test, now with this note: first compound 8 µM.
The compound `Nc1cccc2c1CN(C1CCC(=O)NC1=O)C2=O` (configuration not stated) [Lenalidomide] + O=C(CCCCCCC(=O)Nc1ccccc1)NO [Vorinostat] (partner 1 µM) yielded a relative viability of 0.814.
